On the set-up of data set [1]: method as in PMID 10755652, doi:10.1039/C39890000145, doi:10.1021/ja00130a008. Particulars: cited from earlier work.
On the set-up of data set [2]: method as in PMID 25883127. As to conditions: previously determined; cited from earlier work.
For data set [3] the following is noted: cited from earlier work.
Details of data set [4]: method as in PMID 28408529. Particulars: projected treatment activity 6–8 MBq; cited from earlier work.
Data set [5] in a line: Stability of ^203Pb-labelled compounds in human serum. Format: in vitro ADME. Particulars: 37 °C, up to 72 h, radio-HPLC. The method, then: The conjugates (1 mM in water, 80 μl, 80 nmol) were added to 400 μl sodium acetate buffer (0.4 M in water, pH 5.0), 10 μl ascorbic acid (20% in water) and 140 μl ^203Pb-chloride solution in 0.04 M HCl, with specific activity approximately 102.6 TBq/g (Lantheus Medical Imaging, North Billerica, MA, USA). The mixture was then heated at 95 °C for 5 min. Labelling was controlled by radio-HPLC. The stability of the ^203Pb-labelled compounds was evaluated in 300 μl human serum at 37 °C for up to 72 h. After precipitation of the serum proteins by addition of two parts acetonitrile, the solution was centrifuged for 5 min at 13,000 rpm (twice) and the supernatant was analysed by radio-HPLC (0–100% MeCN over 5 min, monolith column).

Data set [6] relates to C4-2 tumour-bearing mice. Put plainly: Biodistribution (organ distribution) in tumour-bearing mice. Format: in vivo. Particulars: for Organ distribution, Kidneys: 0.025 nmol i.v., n = 3. The method, then:
(§1) The in vivo experiments were carried out in accordance with the laws on animal welfare of the Federal Republic of Germany. For imaging and biodistribution studies, male BALB/c nu/nu mice (20–25 g; Charles River) bearing C4-2 tumour xenografts were used. The mice were inoculated subcutaneously in the right trunk with 5 × 10^6 C4-2 cells in 50% Matrigel in Opti-MEM (1×). For small-animal imaging the mice were anaesthetized with 2% sevoflurane, and then 0.1 nmol (1.0 MBq) of the respective ^203Pb ligand was injected into a tail vein. Serial planar scans were performed using a Gamma Imager-sct (Biospace Lab, Paris, France) with a parallel collimator (35 mm/1.8 mm/0.2 mm) after 10 min, 1 h, 4 h and 24 h. Based on the imaging results, compound CA012 was chosen for biodistribution studies. Experiments were performed in triplicate. For biodistribution, 0.025 nmol (1 MBq) of labelled compound per mouse was administered by injection into a tail vein. After 10 min, 1 h, 4 h and 24 h the mice were killed, the organs were dissected and weighed, and activity was measured using a gamma counter (Packard Cobra Auto-gamma). The organ uptakes were calculated as the percentage of the injected dose per gram of tissue (%ID/g).

The test system of data set [7] is C4-2 cells. Put plainly: Determination of specific internalization ratio. Format: cell-based. As to conditions: for Specific cell surface / Specific lysate (specific internalization): ^203Pb-labelled compound 30 nM, 45 min, 2-PMPA blocking subtracted, mean ± SD n = 3. The method, then: (§2) In vitro and in vivo experiments were performed using the PSMA-positive C4-2 cell line, a subline of the LNCaP (lymph node carcinoma of the prostate) cell line (CRL-3314; American Type Culture Collection). C4-2 cells were cultivated in RPMI-1640 (PAN Biotech) supplemented with 10% fetal calf serum and stable glutamine (PAN Biotech). Cells were grown at 37 °C and incubated in humidified air equilibrated with 5% CO2.
For determination of the specific internalization ratio, 24-well plates were incubated for 20 min with 0.1% poly-L-lysine in PBS at room temperature and washed once with PBS. In the next step, 1 ml RPMI containing 1 × 10^5 C4-2 cells was added to each well and incubated overnight. The conditions during the experiment for each compound were: incubation at 37 °C or 4 °C with or without receptor blocking via 2-(phosphonomethyl)pentanedioic acid (2-PMPA; Axxora) at a final concentration of 500 μM. The cells were then incubated with 250 μl of a 30 nM solution of ^203Pb-labelled compound. The plates were incubated either for 45 min in a water bath at 37 °C or on ice at 4 °C. The cells were then washed three times with 1 ml ice-cold PBS and incubated with 0.5 ml glycine (50 mM in HCl, pH 2.8) for 5 min. After an additional washing step with 1 ml ice-cold PBS, the cells were lysed with 0.5 ml 0.3 M NaOH and collected, and the radioactivity was measured with a gamma counter for 1 min. The specific cellular uptake was determined as the percentage of initially added radioactivity bound per 10^6 cells (%IA/10^6 cells) by subtraction of the respective uptake under blocking conditions. All experiments were performed in triplicate.

For data set [8], the system named is C4-2 tumour-bearing mice. Put plainly: Planar scintigraphic imaging in tumour-bearing mice. Format: in vivo. As to conditions: ^203Pb-labelled; for tumour uptake in mice (planar scintigraphy): 1 h after injection, Fig. 3. Here is the method: as §1
Data set [9] has as its target T1, PSMA (Homo sapiens, UniProt Q04609).
T1 construct: host or cells: C4-2 cells (LNCaP subline)
Put plainly: Competitive binding assay on C4-2 cells. As to conditions: reference ^68Ga-labelled PSMA-HBED-CC dimer (PSMA-10), mean ± SD. The method, then:
as §2
A MultiScreenHTS-DV filter plate was incubated at room temperature with 100 μl phosphate-buffered saline (PBS) containing 1% bovine serum albumin (BSA) per well for 30 min. After removal of the PBS/BSA solution, 1 × 10^5 C4-2 cells in Opti-MEM were added to each well. All nonlabelled compounds were dissolved in 300 μl Opti-MEM at the following concentrations: 0, 0.5, 1, 2.5, 5, 10, 25, 50, 100, 500, 1,000 and 5,000 nM. Subsequently, 3 μl of the radiolabelled compound was added, and 50 μl of this mixture was taken to obtain a solution containing 0.75 nM of the radiolabelled ligand. After 45 min incubation at 37 °C, the cells were washed twice with PBS, the radioactivity accumulated in the cells was collected, and the remaining radioactivity was measured in a gamma counter. The inhibitory potency was determined using ^68Ga-labelled PSMA-HBED-CC dimer (i.e. PSMA-10) as the reference. The 50% inhibitory concentration was calculated using a nonlinear regression algorithm (GraphPad Prism 5.01 software). The experiments were performed in quadruplicate.

For data set [10], the target named is T1, PSMA. Details: method as in PMID 25883127. As to conditions: reference compound; cited from earlier work.
Details of data set [11]: method as in PMID 28891033. As to conditions: projected treatment activity 1 GBq; cited from earlier work.

Like-named read-outs stand apart in the source and are kept apart here.

T1 sequence (Q04609 whole entry): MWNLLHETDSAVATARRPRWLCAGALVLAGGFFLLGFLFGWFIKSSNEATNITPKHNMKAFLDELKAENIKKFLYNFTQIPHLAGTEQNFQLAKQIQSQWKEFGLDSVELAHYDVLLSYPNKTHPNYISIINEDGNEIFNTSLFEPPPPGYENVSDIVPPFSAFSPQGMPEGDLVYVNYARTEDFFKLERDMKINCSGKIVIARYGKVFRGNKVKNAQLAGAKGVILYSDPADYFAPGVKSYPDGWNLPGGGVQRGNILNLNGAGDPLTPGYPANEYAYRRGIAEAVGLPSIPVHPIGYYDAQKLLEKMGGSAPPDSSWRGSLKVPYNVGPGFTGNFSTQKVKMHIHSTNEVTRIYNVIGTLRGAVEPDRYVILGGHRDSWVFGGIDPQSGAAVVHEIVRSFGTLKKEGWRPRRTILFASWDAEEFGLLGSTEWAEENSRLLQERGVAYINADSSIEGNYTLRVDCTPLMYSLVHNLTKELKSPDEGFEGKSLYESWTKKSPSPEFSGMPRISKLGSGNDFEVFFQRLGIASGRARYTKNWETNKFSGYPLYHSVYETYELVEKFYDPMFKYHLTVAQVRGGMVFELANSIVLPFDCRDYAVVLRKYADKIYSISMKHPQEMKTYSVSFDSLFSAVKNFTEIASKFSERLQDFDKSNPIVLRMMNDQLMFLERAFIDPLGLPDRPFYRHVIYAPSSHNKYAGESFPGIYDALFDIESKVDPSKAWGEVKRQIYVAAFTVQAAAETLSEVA

Take `NC(=O)CN1CCN(CC(N)=O)CCN(CC(N)=O)CCN(CC(N)=O)CC1` [TCMC, 1,4,7,10-tetra-(2-carbamoyl-methyl)-cyclododecane]: the “pH at which stable complexes with lead(II) are formed” value in [1] is listed as above 2.
On to `O=C([O-])CN1CCN(CC(=O)[O-])CCN(CC(=O)NCC2CCC(C(=O)N[C@@H](Cc3ccc4ccccc4c3)C(=O)NCCCC[C@H](NC(=O)N[C@@H](CCC(=O)O)C(=O)O)C(=O)O)CC2)CCN(CC(=O)[O-])CC1.[177Lu+3]` (some centres unmarked) [^177Lu-PSMA-617], for which the specific internalization in data set [2] is 18 %ID per 10^6cells.
On to `O=C(O)CC[C@H](NC(=O)N[C@@H](CCCCNC(=O)C(Cc1ccc2ccccc2c1)NC(=O)C1CCC(CNC(=O)CN2CCN(CC(=O)O)CCN(CC(=O)O)CCN(CC(=O)O)CC2)CC1)C(=O)O)C(=O)O.[68Ga+3]` (some centres unmarked) [^68Ga-PSMA-617], for which the tumour uptake in [3] (mice) is 8.5 ± 4.1 %ID/g.
Consider `O=C([O-])CC[C@H](NC(=O)N[C@@H](CCCCNC(=O)[C@H](Cc1ccc2ccccc2c1)NC(=O)C1CCC(CNC(=O)CN2CCN(CC(=O)[O-])CCN(CC(=O)[O-])CCN(CC(=O)[O-])CC2)CC1)C(=O)[O-])C(=O)[O-].[225Ac].[H+].[H+].[H+]` (some centres unmarked) [^225Ac-PSMA-617], for which, in data set [4], the “Tissue equivalent dose, Kidneys” value is on record as 4.2 SvRBE5; the “Tissue equivalent dose, Red marrow” value is 0.3 SvRBE5; the “Tissue equivalent dose, Salivary glands” value is reported as 13.8 SvRBE5.
`O=C(O)CN1CCN(CC(=O)O)CCN(CC(=O)O)CCN(CC(=O)O)CC1` [DOTA, 1,4,7,10-tetraazacyclododecane-1,4,7,10-tetraacetic acid]: in data set [1], the “pH at which stable complexes with lead(II) are formed” value is listed as above 3.5.
Broadly, the Ki is a measure of affinity in units of concentration, obtained from inhibition or displacement. Higher therefore signals weaker binding. For `NC(=O)CN1CCN(CC(N)=O)CCN(CC(=O)NCC2CCC(C(=O)NC(Cc3ccc4ccccc4c3)C(=O)NCCCC[C@H](NC(=O)N[C@@H](CCC(=O)O)C(=O)O)C(=O)O)CC2)CCN(CC(N)=O)CC1` (some centres unmarked) [CA012], in data set [5], the “stability in human serum” value is “high stability”. The “Organ distribution, Kidneys” value in data set [6] (C4-2 tumour-bearing mice, 1 h) is reported as 5.1 ± 2.5 % ID/g. Also, in [6] (C4-2 tumour-bearing mice, 24 h), the “Organ distribution, Kidneys” value was 0.9 ± 0.1 % ID/g. Further, the “specific uptake in tumours versus other organs” value in data set [6] (in vivo, C4-2 tumour-bearing mice) is reported as “higher specific uptake in tumours than in other organs”. The same compound came in with a kidney accumulation in [6] (mice, after 24 h) of 2%. In data set [7], the specific ligand-induced internalization amounted to 15.6 ± 2.1 %IA/10^6 cells, the Specific cell surface came out at 132.1 ± 4.3 %IA/10^6 cells and the “Specific lysate (specific internalization)” value was 15.6 ± 2.1 %IA/10^6 cells. Besides, the “kidney clearance (comparison)” value in data set [8] (Fig. 4) was “faster kidney clearance than CA009”. The compound further had a Ki in [9] of 24.3 ± 3.7 nM.
Turning to `O=C(O)CC[C@H](NC(=O)N[C@@H](CCCCNC(=O)[C@H](Cc1ccc2ccccc2c1)NC(=O)[C@H]1CC[C@H](CNC(=O)CN2CCN(CC(=O)O)CCN(CC(=O)O)CCN(CC(=O)O)CC2)CC1)C(=O)O)C(=O)O` [PSMA-617], the “affinity (in words)” value in [10] was “single-digit affinity”. The kidney accumulation in data set [3] (mice, after 24 h) is listed as 1%; in data set [3] (mouse, in vivo, 1 h), 113.3 ± 24.4 %ID/g.
With `NC(=O)CN1CCN(CC(N)=O)CCN(CC(=O)NC(Cc2ccc3ccccc3c2)C(=O)NCCCC[C@H](NC(=O)N[C@@H](CCC(=O)O)C(=O)O)C(=O)O)CCN(CC(N)=O)CC1` (some centres unmarked) [CA011], the “stability in human serum” value in data set [5] is “high stability”. In addition, the “tumour uptake in mice (planar scintigraphy)” value in [8] is “low tumour uptake”. In addition, the affinity in [9], expressed as Ki, was 28.1 ± 2.9 nM.
Consider `NC(=O)CN1CCN(CC(N)=O)CCN(CC(N)=O)C(Cc2ccc(NC(=S)NC(Cc3ccc4ccccc4c3)C(=O)NCCCC[C@H](NC(=O)N[C@@H](CCC(=O)O)C(=O)O)C(=O)O)cc2)CN(CC(N)=O)CC1` (some centres unmarked) [CA008], for which the “tumour uptake in mice (planar scintigraphy)” value in data set [8] is recorded as “low tumour uptake”. This compound also displayed a Ki in data set [9] of 28.8 ± 3.4 nM.
As for `NC(=O)CN1CCN(CC(N)=O)CCN(CC(N)=O)C(Cc2ccc(NC(=S)NCC3CCC(C(=O)NC(Cc4ccc5ccccc5c4)C(=O)NCCCC[C@H](NC(=O)N[C@@H](CCC(=O)O)C(=O)O)C(=O)O)CC3)cc2)CN(CC(N)=O)CC1` (some centres unmarked) [CA009], in [7], the specific ligand-induced internalization worked out at 27.4 ± 2.4 %IA/10^6 cells, the Specific cell surface is 106.5 ± 2.8 %IA/10^6 cells and the “Specific lysate (specific internalization)” value was determined as 27.4 ± 2.4 %IA/10^6 cells. The compound also registered a Ki in data set [9] of 15.3 ± 3.1 nM.
Take `O=C(O)CC[C@H](NC(=O)N[C@@H](CCCCNC(=O)C(Cc1ccc2ccccc2c1)NC(=O)C1CCC(CNC(=O)CN2CCN(CC(=O)O)CCN(CC(=O)O)CCN(CC(=O)O)CC2)CC1)C(=O)O)C(=O)O.[213Bi+3]` (some centres unmarked) [^213Bi-PSMA-617]: in [11], the “Tissue equivalent dose, Kidneys” value was 8.1 SvRBE5; the “Tissue equivalent dose, Red marrow” value is 0.5 SvRBE5; the “Tissue equivalent dose, Salivary glands” value was 8.1 SvRBE5.
